# pIC50, pKi: −log10 of the molar value. Activity calls are given as the source filed them. The rule behind the calls is not given here.
# Columns and labels:
# [1] = system: MCF-10A; assay: Cytotoxicity against human MCF-10A cells assessed as reduction in cell viability incubated for 24 to 48 hrs by CCK-8 assay; assay type: cell-based
# [2] = system: MCF7; assay: Cytotoxicity against human MCF7 cells assessed as reduction in cell viability at 1 to 100 uM incubated for 24 to 48 hrs by CCK-8 assay; assay type: functional, cell-based; conditions: dose 1-100 µM, time 24-48 hrs
# [3] = biological target: T1, Sigma intracellular receptor 2 (Rattus norvegicus, UniProt Q5U3Y7); assay: Displacement of [125I]-RHM-4 from sigma 2 receptor in rat liver membranes after 120 mins by microbeta scintillation counting method; assay type: cell membranes, Membrane
# T1 sequence (Q5U3Y7 whole entry): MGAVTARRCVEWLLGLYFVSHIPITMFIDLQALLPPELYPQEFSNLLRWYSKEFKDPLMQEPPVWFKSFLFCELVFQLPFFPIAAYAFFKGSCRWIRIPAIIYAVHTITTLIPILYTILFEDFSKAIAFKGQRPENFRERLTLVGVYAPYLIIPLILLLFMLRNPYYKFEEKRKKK
# [4] = system: MCF-10A; assay: Cytotoxicity against human MCF-10A cells assessed as reduction in cell viability at 1 to 100 uM incubated for 24 to 48 hrs by CCK-8 assay; assay type: cell-based; conditions: dose lower 1 µM, time lower 24 hrs, dose upper 100 µM, time upper 48 hrs
# [5] = system: MCF7; assay: Cytotoxicity against human MCF7 cells assessed as reduction in cell viability incubated for 24 to 48 hrs by CCK-8 assay; assay type: functional, cell-based
# [6] = biological target: Sigma non-opioid intracellular receptor 1 (Cavia porcellus, UniProt Q60492); assay: Displacement of [3H](+)-pentazocine from sigma 1 receptor in guinea pig brain membranes after 120 mins by microbeta scintillation counting method; assay type: cell membranes, Membrane
# [7] = biological target: Sigma intracellular receptor 2 (Homo sapiens) (UniProt Q5BJF2); assay: Antagonist activity at sigma 2 receptor in human MCF7 cells assessed as reduction in intracellular calcium release at 30 uM incubated for 3 hrs by Fluo-3 AM dye based confocal laser scanning microscopy; assay type: cell-based; conditions: filed as antagonist
# [8] = system: MCF-10A; assay: Cytotoxicity against human MCF-10A cells assessed as reduction in cell viability incubated for 48 hrs by CCK-8 assay; assay type: cell-based
# [9] = system: MCF7; assay: Cytotoxicity against human MCF7 cells assessed as reduction in cell viability incubated for 24 to 48 hrs in presence of cisplatin by CCK-8 assay; assay type: functional, cell-based; conditions: time 24-48 hrs
# [10] = system: MCF7; assay: Cytotoxicity against human MCF7 cells assessed as reduction in cell viability incubated for 48 hrs by CCK-8 assay; assay type: functional, cell-based; conditions: MCF7, 48 h
# [11] = system: HepG2; assay: Cytotoxicity against human HepG2 cells assessed as reduction in cell viability incubated for 24 to 48 hrs in presence of cisplatin by CCK-8 assay; assay type: functional, cell-based; conditions: time 24-48 hrs
# [12] = system: MCF-10A; assay: Cytotoxicity against human MCF-10A cells assessed as reduction in cell viability incubated for 24 hrs by CCK-8 assay; assay type: cell-based; conditions: for pIC50: Homo sapiens, MCF-10A, 24 h, read-out: IC50
# [13] = system: MDA-MB-231; assay: Cytotoxicity against human MDA-MB-231 cells assessed as reduction in cell viability incubated for 24 to 48 hrs in presence of cisplatin by CCK-8 assay; assay type: functional, cell-based; conditions: time 24-48 hrs
# [14] = system: MCF7; assay: Cytotoxicity against human MCF7 cells assessed as reduction in cell viability incubated for 24 hrs by CCK-8 assay; assay type: functional, cell-based; conditions: for pIC50: Homo sapiens, MCF7, 24 h, read-out: IC50
# [15] = system: KYSE-140; assay: Cytotoxicity against human KYSE-140 cells assessed as reduction in cell viability incubated for 24 to 48 hrs in presence of cisplatin by CCK-8 assay; assay type: functional, cell-based; conditions: time 24-48 hrs
# [16] = Selectivity ratio of Ki for displacement of [3H](+)-pentazocine from sigma 1 receptor in guinea pig brain membranes to Ki for displacement of [125I]-RHM-4 from sigma2 receptor in rat liver membranes; assay type: cell membranes
# [17] = biological target: Sigma intracellular receptor 2 (Homo sapiens) (UniProt Q5BJF2); assay: Agonist activity at sigma 2 receptor in human MCF7 cells assessed as stimulation of intracellular calcium release at 10 uM incubated for 3 hrs by Fluo-3 AM dye based confocal laser scanning microscopy; assay type: cell-based; conditions: filed as agonist
# Sigma intracellular receptor 2 (Homo sapiens), sequence (Q5BJF2 whole entry): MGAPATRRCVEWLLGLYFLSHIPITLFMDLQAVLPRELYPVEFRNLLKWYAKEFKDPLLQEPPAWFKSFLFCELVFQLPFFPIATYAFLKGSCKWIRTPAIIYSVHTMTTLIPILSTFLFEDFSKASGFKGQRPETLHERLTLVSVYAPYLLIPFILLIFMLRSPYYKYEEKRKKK
# Sigma non-opioid intracellular receptor 1, sequence (Q60492 whole entry): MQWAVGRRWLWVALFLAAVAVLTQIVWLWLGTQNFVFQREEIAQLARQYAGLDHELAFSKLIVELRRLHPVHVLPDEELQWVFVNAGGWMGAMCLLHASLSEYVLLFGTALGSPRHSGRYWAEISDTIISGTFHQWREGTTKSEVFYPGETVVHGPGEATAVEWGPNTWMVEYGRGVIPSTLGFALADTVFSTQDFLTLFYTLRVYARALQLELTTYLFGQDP
smiles,measurement,setting,value
COc1cc2c(cc1OC)CN(CCCC(=O)c1c(C)c(OC)c(OC)c(OC)c1OC)CC2,pIC50,[1],< 4.00
same,Activity,[2],inactive
same,pKi,[3],8.29
same,Activity,[4],Non-Toxic
same,pIC50,[5],< 4.00
same,pKi,[6],< 6.00
same,Activity,[7],Active
COc1cc2c(cc1OC)CN(CCCCNC(=O)c1cc(C)ccc1OC)CC2,Activity,[7],Active
COc1cc2c(cc1OC)CN(CCC(=O)c1c(C)c(OC)c(OC)c(OC)c1OC)CC2,pIC50,[8],5.01
same,Activity,[9],Active
same,pIC50,[10],5.09
same,Activity,[11],Active
same,pKi,[3],6.02
same,pIC50,[12],4.92
same,Activity,[13],Active
same,pIC50,[14],4.94
same,pKi,[6],5.50
same,Activity,[15],Active
COc1cc2c(c(OC)c1OC)CN(CCC(=O)c1c(C)c(OC)c(OC)c(OC)c1OC)CC2,pIC50,[8],4.56
same,pIC50,[10],4.71
same,pKi,[3],5.50
same,pIC50,[12],4.34
same,pIC50,[14],4.59
same,pKi,[6],< 6.00
COc1cc2c(c(OC)c1OC)CCN(CCCC(=O)c1c(C)c(OC)c(OC)c(OC)c1OC)C2,pKi,[3],7.38
same,Ratio Ki,[16],> 24
same,pKi,[6],< 6.00
COc1cc2c(c(OC)c1OC)CCN(CCC(=O)c1c(C)c(OC)c(OC)c(OC)c1OC)C2,pKi,[3],4.94
same,pKi,[6],< 6.00
COc1cc2c(c(OC)c1OC)CN(CCCCCC(=O)c1c(C)c(OC)c(OC)c(OC)c1OC)CC2,pKi,[3],7.90
same,Ratio Ki,[16],> 79
same,pKi,[6],< 6.00
COc1cc2c(c(OC)c1OC)CCN(CCCCCC(=O)c1c(C)c(OC)c(OC)c(OC)c1OC)C2,pKi,[3],7.71
same,Ratio Ki,[16],> 50
same,pKi,[6],< 6.00
COc1cc2c(c(OC)c1OC)CCN(CCCCC(=O)c1c(C)c(OC)c(OC)c(OC)c1OC)C2,pKi,[3],7.47
same,Ratio Ki,[16],> 29
same,pKi,[6],< 6.00
COc1cc2c(c(OC)c1OC)CCN(CCCCCCC(=O)c1c(C)c(OC)c(OC)c(OC)c1OC)C2,pKi,[3],7.40
same,Ratio Ki,[16],> 24
same,pKi,[6],< 6.00
COc1cc2c(cc1OC)CN(CCCCC(=O)c1c(C)c(OC)c(OC)c(OC)c1OC)CC2,pIC50,[1],< 4.00
same,Activity,[2],inactive
same,pKi,[3],8.52
same,Activity,[4],Non-Toxic
same,pIC50,[5],< 4.00
same,pKi,[6],6.80
same,Activity,[7],Active
COc1cc2c(cc1OC)CN(CCCCCC(=O)c1c(C)c(OC)c(OC)c(OC)c1OC)CC2,pIC50,[1],< 4.00
same,Activity,[2],inactive
same,pKi,[3],9.42
same,Activity,[4],Non-Toxic
same,pIC50,[5],< 4.00
same,pKi,[6],< 6.00
same,Activity,[7],Active
Fc1ccc(-n2cc(CCCCN3CCC4(CC3)OCc3ccccc34)c3ccccc32)cc1,Activity,[17],Active
COc1cc2c(cc1OC)CN(CCCCCCC(=O)c1c(C)c(OC)c(OC)c(OC)c1OC)CC2,pIC50,[8],4.49
same,pIC50,[10],4.29
same,pKi,[3],8.88
same,pIC50,[12],4.27
same,pIC50,[14],4.15
same,pKi,[6],< 6.00
same,Activity,[7],Active
COc1cc2c(c(OC)c1OC)CN(CCCCC(=O)c1c(C)c(OC)c(OC)c(OC)c1OC)CC2,pKi,[3],7.65
same,Ratio Ki,[16],> 44
same,pKi,[6],< 6.00
COc1cc2c(c(OC)c1OC)CN(CCCCCCC(=O)c1c(C)c(OC)c(OC)c(OC)c1OC)CC2,pIC50,[8],4.63
same,pIC50,[10],4.40
same,pKi,[3],< 6.00
same,IC50,[12]; mcf-10a,Not Active
same,IC50,[14]; mcf7,Not Active
same,pKi,[6],< 6.00
COc1cc2c(c(OC)c1OC)CN(CCCC(=O)c1c(C)c(OC)c(OC)c(OC)c1OC)CC2,pKi,[3],< 6.00
same,pKi,[6],< 6.00
